No end group written: not given here.
Assays:
RAW264.7 cells [1] = assay: Live/dead assay (calcein AM/PI); format: cell-based, murine; settings: RAW264.7, 62.5 μg/mL, 24 h, vs untreated cells
Experimental: (§1) A total of 5 × 10^4 cells per well were inoculated into 24-well plates. After 24 h, the cells were exposed to two different types of culture medium: regular medium and medium supplemented with VR-12 (62.5 μg/mL). Following a 24-hour incubation period, the cells were incubated with 200 µL of fresh medium containing calcein AM solution and propidium iodide (PI; Beyotime, Shanghai, China) solution, protected from light for 20 min at room temperature. The observations were conducted using inverted fluorescence microscopy (IX71, Olympus, Japan) and images were captured for documentation purposes.

HGFs = assay: Live/dead assay (calcein AM/PI); format: cell-based, human; settings: 62.5 μg/mL, 24 h, vs untreated cells
Experimental: as §1

RAW264.7 cells [2] = assay: Cell proliferation, CCK-8 assay; format: cell-based, murine; settings: RAW264.7, 125 μg/mL, CCK-8, OD450
Experimental: RAW264.7 cells (murine macrophage cell line, ATCC, Manassas, VA, United States) and HGFs (ATCC, Manassas, VA, United States) were cultured (37°C, sterile atmosphere of 5% CO2) in DMEM (Gibco, United States) containing 10% (v/v) fetal bovine serum (FBS, Solarbio Co., Ltd., Beijing, China) and 1% penicillin/streptomycin (Gibco, Carlsbad, CA).
We assessed cell growth using the Cell Counting Kit-8 (CCK-8) assay ([Chen et al., 2022]). Cells (1,000 cells/well) were seeded in a 96-well plate. After 24 h, the cells were treated with VR-12 (7.81–125 μg/mL, serial two-fold dilution) for 1, 3, 5, and 7 days. The wells without VR-12 were used as blank controls. Cells were incubated using the CCK-8 kit (New Cell&Molecular Biotech Co., Ltd., Suzhou, China), and the absorbance was measured at OD450.

[3] = test system: Fusobacterium nucleatum (ATCC 25586); format: cell-based; settings: ATCC 25586, 48 h
Experimental: (§2) Streptococcus gordonii (ATCC 10558) is a facultative anaerobic bacterium, Fusobacterium nucleatum (ATCC 25586) and Porphyromonas gingivalis (BNCC 353909) are obligate anaerobic bacteria. The effectiveness of VR-12 in suppressing bacterial proliferation was assessed using the standard broth dilution method ([Tang et al., 2022]). Various concentrations of VR-12 (1,000–7.8 μg/mL, serial two-fold dilution) were mixed with liquid medium broth containing bacteria (1 × 10^6 CFU/mL) at a ratio of 1:1, with an overall volume of 200 µL. A blank control was established using a 200 µL PBS solution, whereas a negative control was prepared by combining 100 µL PBS solution with 100 µL of bacterial culture (1 × 10^6 CFU/mL). The bacterial cultures were incubated in liquid medium for 24/48 h at 37°C, with daily observation of the bacterial sediment accumulation at the base of the well. MIC refers to the minimal concentration of peptide that induces a clear liquid and no visible bacterial growth in the well. The bacterial suspension in the well with a concentration greater than the MIC was pipetted evenly and 10 µL of the liquid was extracted from the well and transferred to agar plates and incubated for 24/48 h for MBC determination.

[4] = test system: Streptococcus gordonii (ATCC 10558); format: cell-based; settings: ATCC 10558, 48 h
Experimental: as §2

[5] = test system: Porphyromonas gingivalis (BNCC 353909); format: cell-based; settings: 48 h
Experimental: as §2

rat red blood cells = settings: 125 μg/mL (maximum concentration examined), rat erythrocytes 5% (v/v) suspension, 37°C, 1.5 h, OD540, 1% Triton X-100 positive control
Experimental: Initially, the cells underwent three washing cycles with PBS, followed by centrifugation at 1,000 rpm for 10 min at ambient temperature. After removing the supernatant, a suspension of cells at a concentration of 5% (v/v) was prepared using 0.9% NaCl solution (w/v). Subsequently, 100 μL of peptides at varying concentrations (7.81–125 μg/mL, serial two-fold dilution) were combined with 100 μL of the red blood cell suspensions. The mixture underwent incubation at 37°C for a duration of 1.5 h, after which it was subjected to centrifugation at 1,000 rpm for 5 min, and measurement of absorbance at OD540.1% Triton X-100 and NaCl (0.9%) were used as positive and negative controls, respectively. The hemolysis rate (HR) was determined by employing this formula: HR%=ODt−ODn/ODp−ODn×100% where ODp, ODn and ODt were the absorbance values of the positive control group, the negative control group and the test group, respectively.

Substance: VRLWVRVRRWRR-NH2 [VR-12]
- Cell viability by live/dead staining (RAW264.7 cells [1]): no significant difference in cell viability
- Cell viability by live/dead staining (HGFs): no significant difference in cell viability
- Inhibition rate (RAW264.7 cells [2]): approximately 50%
- MBC [3]: 125 µg/mL
- MIC [3]: 62.5 µg/mL
- MBC [4]: 62.5 µg/mL
- MIC [4]: 31.25 µg/mL
- MBC [5]: 125 µg/mL
- MIC [5]: 62.5 µg/mL
- Hemolysis rate (rat red blood cells): 3.27%
- α-helix + β-sheet proportion: 31.5%

— publication PMC11747041, “Study of an arginine- and tryptophan-rich antimicrobial peptide in peri-implantitis” (Frontiers in Bioengineering and Biotechnology, 2025)
